US7399744B2, “Methods for affecting body composition” (Amylin Pharmaceuticals, Inc., priority 2004, dated 2008)
Marks after values point to notes of the source that are not given here. Ends that are not written are not given here.

Experiments:
[1] = Amylin or sibutramine by 28-day osmotic pump in high fat-fed rats (Example 1); assay type: in vivo, rat; conditions: for Body Weight / Caloric Intake: amylin 300 μg/kg/day or sibutramine 3 mg/kg/day, s.c. 28-day osmotic pump, high fat-fed rats, vs high fat-fed controls
Procedure: (§1) Low fat-fed rats (11% kcal from fat, D12329, Research Diets) were also implanted with pumps delivering vehicle. Food intake and body weight measurements were obtained weekly.
Rats were sacrificed by cardiac puncture under anesthesia. Triglyceride levels were measured on a COBAS Mira plasma analyzer (Roche), and leptin and insulin were assayed according to Linco Research rat RIA kits. Body composition was measured by chemical analysis (Covance Laboratories, Madison, Wis.).
All data are represented as mean±SEM. Analysis of variance was used to test for group differences.
The rats were fattened for 10 weeks prior to drug treatment. The high fat-fed rats were designated as obesity-prone (top 50% of weight gainers) or obesity-resistant (bottom 50%) based on the amount of weight gained through week 7.
In this study, an obesity-prone/obesity-resistant difference in drug interaction was found for protein weight in amylin-treated rats, and thus body composition parameters were measured separately in obesity-prone and obesity-resistant animals in each drug group (FIGS. 2A and 2B).

[2] = tested on: insulin-stimulated glycogen synthesis in soleus muscle; assay: Soleus muscle assay; assay type: cell-based; conditions: rat soleus muscle, inhibition of glucose incorporation into glycogen
Procedure: Concentrations of peptide dissolved in carrier-free buffers are determined by quantitative amino acid analysis, as described therein. The ability of compounds to act as agonists in this assay is determined by measuring EC50 values. […] Similar results were obtained with other agonist compounds listed above.

[3] = Three doses of amylin by osmotic pump in high fat-fed rats (Example 2); assay type: in vivo, rat; conditions: for Body Weight / Caloric Intake: high fat-fed rats, vs high fat-fed controls
From the text: as §1

[4] = Chronic amylin infusion vs pair-feeding in DIO Levin rats (Example 3); assay type: in vivo, rat; parameters: reduction in body weight relative to vehicle controls / Weight (g) / Ash (%): dose or concentration left out as unconfirmed
[5] = Amylin with prior or concurrent food restriction in retired female breeder rats (Example 4); assay type: in vivo, rat; conditions: for % Change in fat / % Change in protein / Estimated Mean Weight change from treatment: amylin 100 μg/kg/day, retired female breeder rats, high fat diet
From the text: Retired female breeder rats were maintained on a high fat diet (40% fat) for 8 weeks. Prior to drug treatment, rats were either ad-lib fed or food restricted to 95% of their starting body weight.
Changes in body weight and body composition are summarized in the table below and depicted in FIGS. 13A-13P.

[6] = Amylin versus pramlintide in DIO Levin rats (Example 5); assay type: in vivo, rat; conditions: 76 nmol/kg/day by osmotic mini-pump for 24 days
Procedure: 48 DIO Levin rats (an in-bred model of diet induced obesity) were used in this study. […] Food intake and body weight was measured daily. […] The pair-fed groups were only allowed to consume the daily intakes of their respective drug-treated groups. For body composition, rats were scanned in a rodent NMR before treatment and after sacrifice (at the end of the study), allowing for the ability to calculate changes in carcass fat and protein (e.g., lean tissue).

[7] = Chronic amylin infusion vs pair-feeding in lean HSD rats (Example 3); assay type: in vivo, rat
Procedure: Lean, male Harlan SPRAGLE DAWLEY® (HSD) (Harlan 7012) rats were maintained on “standard chow” (˜5% calories from fat).
Food intake and body weight were recorded daily (FIGS. 5, 6A, 6B, 7, 8A, and 8B).
On the final day of the experiment, rats were deeply anaesthetized and sacrificed by cardiac puncture. Plasma triglycerides, glucose, and cholesterol were measured on a COBAS Mira plasma Analyzer (Roche). Plasma leptin and insulin were measured using Linco Research kits. (See, FIGS. 9A-9F and 10A-10E.) Body composition was measured by chemical analysis (Covance Laboratories, Madison, Wis.). Fat pad weights of the epididymal, retroperitoneal, subcutaneous, and perirenal fat pads (all unilateral; analysis only done in DIO animals) were carefully dissected and weighed (FIGS. 12A-12D). In analyzing the tissue biochemistry, […] were powdered under liquid N2 and extracted in chloroform:methanol. 0.6% NaCl solution was then added and the tubes were vortexed, centrifuged, and the organic phase was transferred to glass scintillation vials and dried under a stream of N2. Dried lipids were resuspended and triglycerides were quantified by enzymatic assay (Pointe Scientific, Inc.). Tissue glycogen was measured by the amyloglucosidase method. (See FIGS. 11A-11D.)
All data are represented as mean±SEM. Analysis of variance (ANOVA) and Bonferroni post-hoc tests were used to test for group differences (SYSTAT® for Windows). A P-value <0.05 was considered significant. Graphs were generated using PRISM® 4 for Windows (Graphpad Software).

[8] = DIO rats, amylin 300 mg/kg/day, s.c. 28-day osmotic pump, body composition by chemical analysis
[9] = food access prior Ad-lib, during Ad-lib
[10] = food access prior Ad-lib, during Restricted
[11] = food access prior Restricted, during Ad-lib
[12] = food access prior Restricted, during Restricted
[13] = amylin 300 mg/kg/day, s.c. 28-day osmotic pump, body composition by chemical analysis

CC(C)CC(N(C)C)C1(c2ccc(Cl)cc2)CCC1 (stereo not drawn) [SIBUTRAMINE, sibutramine, reference compound]
Body Weight ([1]; Week 1): 6%*
Caloric Intake ([1]; Week 1): 45%*
Body Weight ([1]; Week 2): 6%*
Caloric Intake ([1]; Week 2): 8%*
Body Weight ([1]; Week 3): 6%*
Caloric Intake ([1]; Week 3): −1%
Body Weight ([1]; Week 4): 3%
Caloric Intake ([1]; Week 4): −3%

^2,37h-Amylin
EC50 [2]: 1.63 nM

amylin: Amylin synthesized by Amylin Pharmaceuticals, Inc. by solid-phase chemistry; species not stated (KCNTATCATQRLANFLVHSSNNFGAILSSTNVGSNTY; not fully specified (C-terminus, bridges); cysteine pairing not given here; UniProt P10997 34-70, looked up)
body weight gain ([3]; 30 μg/kg/day): reduction
Body Weight ([3]; 30 μg/kg/day amylin, Week 1): 5%*
Caloric Intake ([3]; 30 μg/kg/day amylin, Week 1): 32%*
Body Weight ([3]; 30 μg/kg/day amylin, Week 2): 7%*
Caloric Intake ([3]; 30 μg/kg/day amylin, Week 2): 17%*
Body Weight ([3]; 30 μg/kg/day amylin, Week 3): 7%*
Caloric Intake ([3]; 30 μg/kg/day amylin, Week 3): 10%
Body Weight ([3]; 30 μg/kg/day amylin, Week 4): 7%*
Caloric Intake ([3]; 30 μg/kg/day amylin, Week 4): 8%
Body Weight ([3]; 100 μg/kg/day amylin, Week 1): 10%*
Caloric Intake ([3]; 100 μg/kg/day amylin, Week 1): 45%*
Body Weight ([3]; 100 μg/kg/day amylin, Week 2): 10%*
Caloric Intake ([3]; 100 μg/kg/day amylin, Week 2): 19%*
Body Weight ([3]; 100 μg/kg/day amylin, Week 3): 9%*
Caloric Intake ([3]; 100 μg/kg/day amylin, Week 3): 4%
Body Weight ([3]; 100 μg/kg/day amylin, Week 4): 8%*
Caloric Intake ([3]; 100 μg/kg/day amylin, Week 4): 9%
Body Weight ([3]; 300 μg/kg/day amylin, Week 1): 7%*
Caloric Intake ([3]; 300 μg/kg/day amylin, Week 1): 41%*
Body Weight ([3]; 300 μg/kg/day amylin, Week 2): 8%*
Caloric Intake ([3]; 300 μg/kg/day amylin, Week 2): 15%*
Body Weight ([3]; 300 μg/kg/day amylin, Week 3): 10%*
Caloric Intake ([3]; 300 μg/kg/day amylin, Week 3): 19%*
Body Weight ([3]; 300 μg/kg/day amylin, Week 4): 12%*
Caloric Intake ([3]; 300 μg/kg/day amylin, Week 4): 19%*
effects on food intake and body weight across doses ([3]; 30, 100 and 300 μg/kg/day): dose-dependent
percent body fat ([4]; DIO rats): significant decrease
percent protein ([4]; DIO rats): significant preservation or gain
weight gain compared to vehicle rats ([4]; DIO rats): significant reduction
Fat (%) [4, 8]: 24.3 ± 6.5 %
Moisture (%) [4, 8]: 56.68 ± 4.4 %
Protein (%) [4, 8]: 18.09 ± 1.68 %
reduction in body weight relative to vehicle controls ([4]; DIO rats, osmotic pump): 12%
Ash (%) ([4]; DIO rats, s.c. 28-day osmotic pump, body composition by chemical analysis): 1.65 ± 0.34%
Weight (g) ([4]; DIO rats, s.c. 28-day osmotic pump, end of study): 548.94* g
muscle glycogen content ([4]; tissue biochemistry, amyloglucosidase method): significantly reduced
food intake versus vehicle treated counterparts ([5]; FIGS. 13E-13H): ate less
Body Weight ([5]; all treatment conditions): significantly reduced
percent protein ([5]; except in ad-lib fed then food restricted group): increases
percent body fat ([5]; except in chronically restricted animals): significant decreases
% Change in fat [5, 9]: −10.1 ± 0.5%
% Change in protein [5, 9]: 0.8 ± 0.1%
Estimated Mean Weight change from treatment [5, 9]: -21.8 ± 1.4 g
% Change in fat [5, 10]: −9.9 ± 0.9%
% Change in protein [5, 10]: 0.7 ± 0.1%
Estimated Mean Weight change from treatment [5, 10]: -23.1 ± 2.3 g
% Change in fat [5, 11]: −11.5 ± 0.6%
% Change in protein [5, 11]: 1.1 ± 0.1%
Estimated Mean Weight change from treatment [5, 11]: -18.2 ± 2.5 g
% Change in fat [5, 12]: −11.1 ± 1.0%
% Change in protein [5, 12]: 1.0 ± 0.1%
Estimated Mean Weight change from treatment [5, 12]: -17.1 ± 2.0 g
slowing body weight gain [6]: significant effect
effects on body composition ([6]; rodent NMR): favorable effects
percent body fat relative to pair-fed [7]: lower
percent protein [7]: remained relatively constant
weight gain compared to vehicle rats [7]: significant reduction
reduction in body weight relative to vehicle controls ([7]; amylin 300 μg/kg/day, osmotic pump): 12%
Fat (%) ([7]; amylin 300 μg/kg/day, s.c. 28-day osmotic pump, body composition by chemical analysis): 7.2 ± 1.5 %
Weight (g) ([7]; amylin 300 μg/kg/day, s.c. 28-day osmotic pump, end of study): 392.25* g
Moisture (%) [7, 13]: 67.57 ± 0.7 %
Protein (%) [7, 13]: 20.67 ± 0.74%
Body Weight ([1]; Week 1): 6%*
Caloric Intake ([1]; Week 1): 45%*
Body Weight ([1]; Week 2): 7%*
Caloric Intake ([1]; Week 2): 14%*
Body Weight ([1]; Week 3): 8%*
Caloric Intake ([1]; Week 3): 10%*
Body Weight ([1]; Week 4): 8%*
Caloric Intake ([1]; Week 4): 10%*
tolerance/resistance ([1]; administered by osmotic pump): did not induce tolerance/resistance
protein compared to the control group (vehicle only) ([1]; obesity-prone rats): increase
